Data taken from patent US20240300899A1, “A QUINOLONE COMPOUND IN SOLID FORMS AND PROCESSES FOR THE PREPARATION THEREOF” (ZYDUS LIFESCIENCES LIMITED, priority 2021, published 2024).

Columns and labels:
Assay type in all cases: physicochemical
[1] = Hygroscopicity test as per EP general texts 5.11; conditions: 24-hour exposure over saturated ammonium chloride solution, 25±1° C., 80±2% relative humidity
Procedure: Hygroscopicity Data: The test for hygroscopicity was performed as per EP general texts 5.11 page no 565. The test was performed by calculating the difference in weights, after 24-hour upon expose over a saturated solution of ammonium chloride at 25±1° C. and 80±2% relative humidity.

[2] = Stability data on storage (HPLC purity, polymorphic form, impurity content)
Procedure: The crystalline form of compound of Formula (I) is characterized by X-ray powder diffraction (XRPD) pattern. In particular, the solid form of compound of Formula (I) is characterized by X-ray powder diffraction pattern obtained using CuKα1 radiation on a PANalytical X'Pert Pro or equivalent X-ray powder diffraction instrument. Particularly, the X-ray powder diffraction spectrum was measured under the following experimental conditions: The HPLC purity of the compound of Formula (I) was calculated using following method: Instrument Name: Waters Alliance e2695 HPLC system or equivalent [table] [table] [table]

[3] = Powder properties (bulk density, tapped density, angle of repose)
[4] = 25° C. ± 2° C. and 60% ± 5% Relative Humidity, 1 month
[5] = 25° C. ± 2° C. and 60% ± 5% Relative Humidity, 15 days
[6] = 25° C. ± 2° C. and 60% ± 5% Relative Humidity, Initial
[7] = 30° C. ± 2° C. and 65% ± 5% Relative Humidity, 1 month
[8] = 30° C. ± 2° C. and 65% ± 5% Relative Humidity, 15 days
[9] = 30° C. ± 2° C. and 65% ± 5% Relative Humidity, Initial
[10] = 40° C. ± 2° C. and 75% ± 5 % Relative Humidity, 1 month
[11] = 40° C. ± 2° C. and 75% ± 5 % Relative Humidity, 15 days
[12] = 40° C. ± 2° C. and 75% ± 5 % Relative Humidity, Initial

Hygroscopicity result [1]: Non-hygroscopic | Increase in mass (hygroscopicity) [1]: less than 0.2% | Content of Compound of Formula D [2, 4]: 0.04% | HPLC Purity [2, 4]: 99.91% | Polymorphic form [2, 4]: Unchanged | Content of Compound of Formula D [2, 5]: 0.05% | HPLC Purity [2, 5]: 99.87% | Polymorphic form [2, 5]: Unchanged | Content of Compound of Formula D [2, 6]: 0.04% | HPLC Purity [2, 6]: 99.9% | Content of Compound of Formula D [2, 7]: 0.04% | HPLC Purity [2, 7]: 99.91% | Polymorphic form [2, 7]: Unchanged | Content of Compound of Formula D [2, 8]: 0.05% | HPLC Purity [2, 8]: 99.83% | Polymorphic form [2, 8]: Unchanged | Content of Compound of Formula D [2, 9]: 0.04% | HPLC Purity [2, 9]: 99.9% | Content of Compound of Formula D [2, 10]: 0.04% | HPLC Purity [2, 10]: 99.92% | Polymorphic form [2, 10]: Unchanged | Content of Compound of Formula D [2, 11]: 0.05% | HPLC Purity [2, 11]: 99.85% | Polymorphic form [2, 11]: Unchanged | Content of Compound of Formula D [2, 12]: 0.04% | HPLC Purity [2, 12]: 99.9% | Angle of Repose [3]: 30.6 ° | Bulk Density [3]: 0.61 g/mL | Tapped Density [3]: 0.73 g/mL
Structure (SMILES): O=C(O)CNC(=O)c1c(O)c2ccccc2n(OCC2CC2)c1=O [Example-1, (1-(cyclopropylmethoxy)-4-hydroxy-2-oxo-1,2-dihydroquinoline-3-carbonyl) glycine]
